From PubChem BioAssay AID330 (DTP/NCI, 2004)
Values joined by “and” are separate entries in the source; they are usually repeats but may differ in a detail not shown here. Identical values can stand only once. Inconclusive results and toxic doses are left out.

Tested on: P388 leukemia ip, CD2F1 mice, survival T/C
Assay: NCI In Vivo Anticancer Drug Screen. Data for tumor model P388 Leukemia (intraperitoneal) in CD2F1 (CDF1) mice
Settings: endpoint: median survival time, higher = longer survival
How it was run: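 Mice carrying the transplanted tumor received test compound or vehicle. Survival was recorded in each group, and the value is the treated-group measurement divided by that of the vehicle-treated control group.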

[1] = dose: 100.0 mg/kg/injection, schedule: Q04DX003 (ip), vehicle: Klucel (hydroxypropylcellulose) (HPC)
[2] = dose: 200.0 mg/kg/injection, schedule: Q04DX003 (ip), vehicle: Klucel (hydroxypropylcellulose) (HPC)
[3] = dose: 12.5 mg/kg/injection, schedule: Q04DX003 (ip), vehicle: saline with Tween-80
[4] = dose: 25.0 mg/kg/injection, schedule: Q04DX003 (ip), vehicle: saline with Tween-80
[5] = dose: 50.0 mg/kg/injection, schedule: Q04DX003 (ip), vehicle: saline with Tween-80
[6] = dose: 25.0 mg/kg/injection, schedule: Q01DX009 (ip), vehicle: Klucel (hydroxypropylcellulose) (HPC)
[7] = dose: 50.0 mg/kg/injection, schedule: Q01DX009 (ip), vehicle: Klucel (hydroxypropylcellulose) (HPC)
[8] = dose: 12.5 mg/kg/injection, schedule: Q01DX009 (ip), vehicle: Klucel (hydroxypropylcellulose) (HPC)
[9] = dose: 50.0 mg/kg/injection, schedule: Q01DX005 (ip), vehicle: Klucel (hydroxypropylcellulose) (HPC)
[10] = dose: 100.0 mg/kg/injection, schedule: Q01DX005 (ip), vehicle: Klucel (hydroxypropylcellulose) (HPC)
[11] = dose: 200.0 mg/kg/injection, schedule: Q01DX005 (ip), vehicle: Klucel (hydroxypropylcellulose) (HPC)

Structure (SMILES): COC1C(O[C@@H]2c3c(cc4c(c3O)C(=O)c3c(O)cccc3C4=O)C(=O)C(C)(O)C2OC)OC(C)C(O)C1O (some centres undefined)
- T/C (dose: 6.25 mg/kg/injection, schedule: Q04DX003 (ip), vehicle: Klucel (hydroxypropylcellulose) (HPC)): 102 % of control
- T/C (dose: 12.5 mg/kg/injection, schedule: Q04DX003 (ip), vehicle: Klucel (hydroxypropylcellulose) (HPC)): 101 % of control
- T/C (dose: 25.0 mg/kg/injection, schedule: Q04DX003 (ip), vehicle: Klucel (hydroxypropylcellulose) (HPC)): 106 % of control
- T/C (dose: 50.0 mg/kg/injection, schedule: Q04DX003 (ip), vehicle: Klucel (hydroxypropylcellulose) (HPC)): 101 % of control and 104 % of control
- T/C [1]: 104 % of control
- T/C [2]: 121 % of control

Structure (SMILES): NC(=S)N/N=C1\C(=O)NC(=O)C1c1ccccc1 (centres undefined)
- T/C (dose: 50.0 mg/kg/injection, schedule: Q01DX005 (ip), vehicle: saline with Tween-80): 115 % of control
- T/C (dose: 100.0 mg/kg/injection, schedule: Q01DX005 (ip), vehicle: saline with Tween-80): 105 % of control

Structure (SMILES): Cc1ccc(S(=O)(=O)OCC(C)(C)CC#N)cc1
- T/C [1]: 96 % of control
- T/C [2]: 96 % of control
- T/C (dose: 400.0 mg/kg/injection, schedule: Q04DX003 (ip), vehicle: Klucel (hydroxypropylcellulose) (HPC)): 100 % of control

Structure (SMILES): COc1ccc(/C=C/c2cc(OC)cc(=O)o2)cc1
- T/C [3]: 100 % of control
- T/C [4]: 99 % of control
- T/C [5]: 100 % of control
- T/C (dose: 100.0 mg/kg/injection, schedule: Q04DX003 (ip), vehicle: saline with Tween-80): 100 % of control

Structure (SMILES): CCOC(=O)/C=C1\SC(C)(C)C1NC(=O)OCc1ccccc1 (centres undefined)
- T/C (dose: 15.0 mg/kg/injection, schedule: Q01DX005 (ip), vehicle: Klucel (hydroxypropylcellulose) (HPC)): 94 % of control
- T/C (dose: 30.0 mg/kg/injection, schedule: Q01DX005 (ip), vehicle: Klucel (hydroxypropylcellulose) (HPC)): 103 % of control
- T/C (dose: 60.0 mg/kg/injection, schedule: Q01DX005 (ip), vehicle: Klucel (hydroxypropylcellulose) (HPC)): 91 % of control and 93 % of control

Structure (SMILES): CCCCCCCCCC1(O)OC(=O)C(C)=C1C (centres undefined)
- T/C [3]: 115 % of control
- T/C [4]: 100 % of control
- T/C [5]: 102 % of control

Structure (SMILES): Cc1cc(OC2OC(CO)C(O)C(O)C2O)ccc1O (centres undefined)
- T/C [6]: 87 % of control
- T/C [7]: 96 % of control
- T/C (dose: 200.0 mg/kg/injection, schedule: Q01DX009 (ip), vehicle: Klucel (hydroxypropylcellulose) (HPC)): 89 % of control

Structure (SMILES): c1ccc(Cc2cccc[n+]2C(c2ccccc2)c2ccccc2)cc1
- T/C (dose: 6.25 mg/kg/injection, schedule: Q01DX009 (ip), vehicle: Klucel (hydroxypropylcellulose) (HPC)): 105 % of control
- T/C [8]: 87 % of control

Structure (SMILES): Nc1nc([Se])c2ncn(C3CC(O)C(CO)O3)c2n1 (centres undefined)
- T/C [8]: 160 % of control
- T/C [6]: 169 % of control and 173 % of control
- T/C [7]: 112 % of control

Structure (SMILES): c1ccc2oc(C34OC5CC(CC(C5)O3)O4)nc2c1
- T/C (dose: 100.0 mg/kg/injection, schedule: Q01DX001 (ip), vehicle: saline with Tween-80): 101 % of control
- T/C (dose: 200.0 mg/kg/injection, schedule: Q01DX001 (ip), vehicle: saline with Tween-80): 99 % of control
- T/C (dose: 400.0 mg/kg/injection, schedule: Q01DX001 (ip), vehicle: saline with Tween-80): 100 % of control

Structure (SMILES): N=C(N)C(Cl)(Cl)Cl
- T/C (dose: 12.5 mg/kg/injection, schedule: Q01DX009 (ip), vehicle: saline with Tween-80): 108 % of control
- T/C (dose: 25.0 mg/kg/injection, schedule: Q01DX009 (ip), vehicle: saline with Tween-80): 106 % of control
- T/C (dose: 50.0 mg/kg/injection, schedule: Q01DX009 (ip), vehicle: saline with Tween-80): 101 % of control and 106 % of control

Structure (SMILES): CCCCCCn1[nH]nc(C(=O)OC)c1=O (tested in a mixture with another compound)
- T/C [9]: 94 % of control
- T/C [10]: 87 % of control
- T/C [11]: 92 % of control

Structure (SMILES): Nc1ccc(S(=O)(=O)NCCSSCCNS(=O)(=O)c2ccc(N)cc2)cc1
- T/C (dose: 60.0 mg/kg/injection, schedule: Q01DX005 (ip), vehicle: saline with Tween-80): 97 % of control
- T/C (dose: 120.0 mg/kg/injection, schedule: Q01DX005 (ip), vehicle: saline with Tween-80): 100 % of control
- T/C (dose: 240.0 mg/kg/injection, schedule: Q01DX005 (ip), vehicle: saline with Tween-80): 105 % of control

Structure (SMILES): CCCNC(=O)CCC(NS(=O)(=O)c1ccc(NC(C)=O)cc1)C(=O)O (centres undefined)
- T/C [9]: 100 % of control
- T/C [10]: 98 % of control
- T/C [11]: 100 % of control
